Patent US11148991B2, “5-bromo-2-(alpha-hydroxypentyl)benzoic acid sodium salts in different crystal forms, and preparation method thereof” (priority 2013, dated 2021)
Read-outs that look alike come from different tables or passages of the source.

Tests used:
[1] = test system: liver and kidney functions in rats; experiment: Sub-acute toxic effect on liver and kidney functions in rats; assay type: in vivo; parameters: AST: unit not given here; conditions: for Albumin (ALB) / Total Proteins (TP): in g/L (unit assumed); for Creatinine (CRE): in µmol/L (unit assumed)
blood routine tests = experiment: Sub-acute toxic effect on blood routine tests; assay type: in vivo, Rat; parameters: WBC / RBC: unit not given beside the values; conditions: for PLT: in 10^9/L (unit assumed); for Lymphocyte (LYM): in % (unit assumed); for HGB: in g/L (unit assumed)
[2] = test system: blood coagulation functions in rats; experiment: Sub-acute toxic effect on blood coagulation functions in rats; assay type: in vivo
[3] = Effect on body weight of rats; assay type: in vivo; conditions: for BW: in g (unit assumed)
[4] = Solubility in water and methanol; assay type: physicochemical
[5] = Stability in water and methanol solution; assay type: physicochemical; conditions: sodium salt
Rat = experiment: Sub-acute toxicity, rat
[6] = Acute toxicity (LD50), rat; conditions: in vivo
[7] = Acute toxicity (LD50), mouse; conditions: in vivo
[8] = rats F, iv (12 mg/kg), in U/L (unit assumed)
[9] = Day 6, rats F, ig group 20 mg/kg
[10] = Day 6, rats F, iv group 12 mg/kg
[11] = Day 6, rats M, ig group 20 mg/kg
[12] = Day 6, rats M, iv group 12 mg/kg
[13] = Day 11, rats F, ig group 20 mg/kg
[14] = Day 11, rats F, iv group 12 mg/kg
[15] = Day 11, rats M, ig group 20 mg/kg
[16] = Day 11, rats M, iv group 12 mg/kg
[17] = Day 16, rats F, ig group 20 mg/kg
[18] = Day 16, rats F, iv group 12 mg/kg
[19] = Day 16, rats M, ig group 20 mg/kg
[20] = Day 16, rats M, iv group 12 mg/kg
[21] = Day 21, rats F, ig group 20 mg/kg
[22] = Day 21, rats F, iv group 12 mg/kg
[23] = Day 21, rats M, ig group 20 mg/kg
[24] = Day 21, rats M, iv group 12 mg/kg
[25] = Day 24, rats F, ig group 20 mg/kg
[26] = Day 24, rats F, iv group 12 mg/kg
[27] = Day 24, rats M, ig group 20 mg/kg
[28] = Day 24, rats M, iv group 12 mg/kg

## CCCCC(O)c1ccc(Br)cc1C(=O)[O-].[Na+] (stereo not drawn) [BZP (amorphous form), 5-bromo-2-(α-hydroxypentyl)benzoic acid sodium salt]
[1]; rats F, ig (20 mg/kg)
  AST: 168.00 ± 17.19
  Blood urea nitrogen (BUN): 3.80 ± 0.59
  Total Bilirubin (TBIL): 2.10 ± 0.40
  Albumin (ALB): 32.43 ± 1.14
  Total Proteins (TP): 46.63 ± 1.07
  Creatinine (CRE): 57.50 ± 3.11
[1]; rats F, ig (20 mg/kg), in U/L (unit assumed)
  Creatinine kinase (CK): 776.00 ± 437.68
[1]; rats F, iv (12 mg/kg)
  AST: 202.40 ± 68.12
  Blood urea nitrogen (BUN): 4.00 ± 0.43
  Total Bilirubin (TBIL): 2.72 ± 0.67
  Albumin (ALB): 33.96 ± 1.71
  Total Proteins (TP): 49.00 ± 0.79
  Creatinine (CRE): 55.40 ± 2.30
[1]; [8]
  ALT: 38.00 ± 9.82
  Creatinine kinase (CK): 636.80 ± 536.05
[1]; rats M, ig (20 mg/kg)
  AST: 4.92 ± 0.75
  Blood urea nitrogen (BUN): 2.76 ± 1.09
  Total Bilirubin (TBIL): 2.24 ± 1.50
  Albumin (ALB): 28.98 ± 7.34
  Total Proteins (TP): 40.26 ± 15.78
  Creatinine (CRE): 38.80 ± 25.62
[1]; rats M, ig (20 mg/kg), in U/L (unit assumed)
  Creatinine kinase (CK): 938.60 ± 553.43
[1]; rats M, iv (12 mg/kg)
  AST: 5.34 ± 1.33
  Blood urea nitrogen (BUN): 3.46 ± 0.72
  Total Bilirubin (TBIL): 3.10 ± 1.23
  Albumin (ALB): 36.90 ± 6.72
  Total Proteins (TP): 53.40 ± 8.69
  Creatinine (CRE): 66.60 ± 15.09
[1]; rats M, iv (12 mg/kg), in U/L (unit assumed)
  Creatinine kinase (CK): 762.00 ± 351.72
Blood routine tests; F, ig (20 mg/kg)
  Basophil (RAS): 1.43 ± 1.17
  Eosinophil (EOS): 0.23 ± 0.12
  Monocyte (MON): 2.05 ± 1.74
  Neutrophil (NEU): 28.44 ± 10.20
  RBC: 4.51 ± 3.30
  WBC: 4.44 ± 2.24
  PLT: 1146.00 ± 74.22
  Lymphocyte (LYM): 66.45 ± 11.13
  HGB: 117.00 ± 19.70
Blood routine tests; F, iv (12 mg/kg)
  Basophil (RAS): 0.56 ± 0.15
  Eosinophil (EOS): 0.76 ± 0.50
  Monocyte (MON): 3.62 ± 0.63
  Neutrophil (NEU): 21.44 ± 2.74
  RBC: 6.95 ± 1.06
  WBC: 5.20 ± 1.53
  PLT: 1075.00 ± 41.70
  Lymphocyte (LYM): 73.62 ± 2.16
  HGB: 125.60 ± 16.68
Blood routine tests; M, ig (20 mg/kg)
  Basophil (RAS): 0.62 ± 0.25
  Eosinophil (EOS): 0.56 ± 0.50
  Monocyte (MON): 4.93 ± 1.91
  Neutrophil (NEU): 23.88 ± 5.48
  RBC: 7.61 ± 0.28
  WBC: 5.18 ± 0.71
  PLT: 1258.20 ± 281.33
  Lymphocyte (LYM): 70.84 ± 3.99
  HGB: 134.00 ± 19.13
Blood routine tests; M, iv (12 mg/kg)
  Basophil (RAS): 0.40 ± 0.12
  Eosinophil (EOS): 0.60 ± 0.29
  Monocyte (MON): 3.80 ± 0.70
  Neutrophil (NEU): 22.16 ± 4.14
  RBC: 7.86 ± 0.40
  WBC: 5.66 ± 2.23
  PLT: 1087.20 ± 56.34
  Lymphocyte (LYM): 72.50 ± 4.66
  HGB: 141.40 ± 7.20
[2]; rats F, ig (20 mg/kg)
  APTT: 22.8 ± 5.9 s
  FIB: 7.22 ± 0.97 g/L
  PT: 17.5 ± 2.2 s
  TT: 27.3 ± 2.4 s
[2]; rats F, iv (12 mg/kg)
  APTT: 22.3 ± 8.5 s
  FIB: 6.63 ± 0.95 g/L
  PT: 18.8 ± 3.3 s
  TT: 27.5 ± 2.8 s
[2]; rats M, ig (20 mg/kg)
  APTT: 26.5 ± 3.2 s
  FIB: 7.03 ± 0.29 g/L
  PT: 16.4 ± 3.4 s
  TT: 26.9 ± 5.9 s
[2]; rats M, iv (12 mg/kg)
  APTT: 23.7 ± 2.1 s
  FIB: 6.28 ± 0.55 g/L
  PT: 17.5 ± 2.0 s
  TT: 27.1 ± 3.8 s
[3]; Day 1, rats F, ig group 20 mg/kg
  BW: 179 ± 12
[3]; Day 1, rats F, iv group 12 mg/kg
  BW: 182 ± 13
[3]; Day 1, rats M, ig group 20 mg/kg
  BW: 183 ± 8
[3]; Day 1, rats M, iv group 12 mg/kg
  BW: 179 ± 13
[3]; [9]
  ΔW (%): 7 ± 4%
  BW: 192 ± 16
[3]; [10]
  ΔW (%): 7 ± 2%
  BW: 195 ± 12
[3]; [11]
  ΔW (%): 15 ± 3%
  BW: 210 ± 8
[3]; [12]
  ΔW (%): 14 ± 6%
  BW: 204 ± 7
[3]; [13]
  ΔW (%): 7 ± 2 %
  BW: 203 ± 14
[3]; [14]
  ΔW (%): 3 ± 2 %
  BW: 200 ± 15
[3]; [15]
  ΔW (%): 17 ± 5%
  BW: 245 ± 12
[3]; [16]
  ΔW (%): 14 ± 2 %
  BW: 238 ± 6
[3]; [17]
  ΔW (%): 25 ± 4 %
  BW: 224 ± 11
[3]; [18]
  ΔW (%): 21 ± 7 %
  BW: 212 ± 14
[3]; [19]
  ΔW (%): 53 ± 14%
  BW: 280 ± 18
[3]; [20]
  ΔW (%): 31 ± 10%
  BW: 270 ± 6
[3]; [21]
  ΔW (%): 29 ± 6 %
  BW: 230 ± 15
[3]; [22]
  ΔW (%): 23 ± 6 %
  BW: 223 ± 20
[3]; [23]
  ΔW (%): 75 ± 14%
  BW: 320 ± 18
[3]; [24]
  ΔW (%): 66 ± 15 %
  BW: 296 ± 8
[3]; [25]
  ΔW (%): 31 ± 5 %
  BW: 235 ± 12
[3]; [26]
  ΔW (%): 21 ± 6 %
  BW: 221 ± 19
[3]; [27]
  ΔW (%): 84 ± 14%
  BW: 337 ± 18
[3]; [28]
  ΔW (%): 71 ± 16 %
  BW: 304 ± 10
[4]; methanol, organic solvent or mixture, methanol, read-out: Solubility in methanol
  solubility: 1890 mg/mL
[4]; water, read-out: Solubility in water
  solubility: 2980 mg/mL
[5]; in methanol solution
  Stability: >24 h
[5]; in water
  Stability: >24 h
Rat; ig
  Sub-acute: >20 mg/kg
Rat; iv
  Sub-acute: >12 mg/kg
[6]; iv
  LD50: 246 mg/kg
[6]; po
  LD50: 726 mg/kg
[7]; iv
  LD50: 323 mg/kg
[7]; po
  LD50: 927 mg/kg
